According to patent US20120172340A1, “Compositions and Methods for Selectively Activating Human Sirtuins” (BIOMOL International L.P., priority 2004, published 2012):
Changes are numbered by the printed parent chain. Entries after “also recorded” stand apart in the source; their conditions may differ.

Tests used:
[1] = target: T1, human SIRT1 (Homo sapiens, UniProt Q96EB6); test: SIRT1 rate measurement, fluorogenic p53-382 peptide deacetylation; assay type: biochemical; details: for SIRT1 Ratio to Control Rates Mean ± SE Compounds at 100 μM: 100 μM test compounds, 25 μM p53-382 peptide
T1 construct: made in house; host or cells: E. coli
T1 sequence (Q96EB6 1-747): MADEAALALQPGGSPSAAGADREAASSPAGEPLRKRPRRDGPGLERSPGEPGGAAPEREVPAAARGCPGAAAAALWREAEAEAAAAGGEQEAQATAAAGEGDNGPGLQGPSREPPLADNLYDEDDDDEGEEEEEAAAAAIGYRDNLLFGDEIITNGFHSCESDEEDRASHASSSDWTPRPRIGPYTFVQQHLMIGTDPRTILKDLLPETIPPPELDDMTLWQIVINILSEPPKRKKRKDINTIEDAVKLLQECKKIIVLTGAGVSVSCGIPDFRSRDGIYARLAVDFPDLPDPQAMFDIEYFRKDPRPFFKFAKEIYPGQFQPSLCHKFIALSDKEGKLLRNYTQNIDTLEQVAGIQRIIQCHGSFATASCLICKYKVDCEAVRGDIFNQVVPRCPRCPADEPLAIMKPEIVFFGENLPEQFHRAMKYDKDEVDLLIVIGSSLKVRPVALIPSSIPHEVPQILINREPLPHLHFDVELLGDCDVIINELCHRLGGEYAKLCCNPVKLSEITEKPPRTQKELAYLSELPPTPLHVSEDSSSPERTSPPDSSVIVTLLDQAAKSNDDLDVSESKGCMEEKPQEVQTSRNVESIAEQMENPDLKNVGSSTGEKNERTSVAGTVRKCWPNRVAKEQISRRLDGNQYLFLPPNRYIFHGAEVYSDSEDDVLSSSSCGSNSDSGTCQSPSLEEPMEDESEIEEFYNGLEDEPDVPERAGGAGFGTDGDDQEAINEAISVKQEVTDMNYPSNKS

[2] = target: T2, human SIRT5 (Homo sapiens, UniProt Q9NXA8); test: SIRT5 rate measurement, fluorogenic p53-382 peptide deacetylation; assay type: biochemical; parameters: His6 (histidine tag, 2.5 kDa) (N); made in house; host or cells: E. coli; details: for SIRT5 Ratio of Control Rates Mean ± SE Compounds at 200 μM: 200 μM test compounds, 500 μM NAD+, 100 μM p53-382 peptide; for relative activation of SIRT5 versus SIRT1 (in words): comparison of Table 2 SIRT5 and SIRT1 data
T2 sequence (Q9NXA8 37-310): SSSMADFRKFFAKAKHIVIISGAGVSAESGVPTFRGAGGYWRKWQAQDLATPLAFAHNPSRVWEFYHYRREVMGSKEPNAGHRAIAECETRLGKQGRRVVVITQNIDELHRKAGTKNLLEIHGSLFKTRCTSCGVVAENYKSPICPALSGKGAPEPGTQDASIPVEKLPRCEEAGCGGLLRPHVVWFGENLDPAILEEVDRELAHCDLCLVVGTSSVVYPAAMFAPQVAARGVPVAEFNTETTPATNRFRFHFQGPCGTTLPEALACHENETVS

[3] = target: T3, human SIRT3 (Homo sapiens, UniProt Q9NTG7); test: Resveratrol dose-response, fluorogenic deacetylation, SIRT3; assay type: biochemical; details: 37° C., 25 μM NAD+, 25 μM p53-320; FIG. 1
T3 construct: made in house; host or cells: E. coli
T3 sequence (Q9NTG7 1-399): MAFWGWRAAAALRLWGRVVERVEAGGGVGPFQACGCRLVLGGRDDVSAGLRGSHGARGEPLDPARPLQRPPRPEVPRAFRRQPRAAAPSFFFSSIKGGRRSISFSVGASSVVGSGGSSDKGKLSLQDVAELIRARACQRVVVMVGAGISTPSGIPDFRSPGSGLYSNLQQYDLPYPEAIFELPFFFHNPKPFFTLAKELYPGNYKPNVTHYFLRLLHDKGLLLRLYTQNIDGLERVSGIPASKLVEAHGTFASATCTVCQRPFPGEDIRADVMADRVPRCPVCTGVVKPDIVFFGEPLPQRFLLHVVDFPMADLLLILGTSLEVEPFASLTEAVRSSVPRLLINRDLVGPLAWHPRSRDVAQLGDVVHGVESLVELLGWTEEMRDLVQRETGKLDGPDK

[4] = target: T2, human SIRT5; details: 500 μM resveratrol; saturating NAD+ (12 mM)
[5] = target: T4, E230K mutant SIRT1 (Homo sapiens, UniProt Q96EB6, E230K); test: Resveratrol dose-response, fluorogenic deacetylation, E230K mutant SIRT1; assay type: biochemical; details: 37° C., 25 μM NAD+, 25 μM p53-382; FIG. 1A
T4 construct: made in house; host or cells: E. coli
T4 sequence (Q96EB6 1-747 E230K): T1 sequence (Q96EB6 1-747) with E230K

[6] = target: T5, SIRT5Δ1-39 (Homo sapiens, UniProt Q9NXA8); test: Deacetylation activity of N-terminally truncated SIRT5; assay type: biochemical; details: 500 μM resveratrol; 1 mM p53-382 peptide, 12 mM NAD+; compared with full-length SIRT5
T5 construct: in which the first 39 residues were deleted (SIRT5Δ1-39); made in house
T5 sequence (Q9NXA8 40-310): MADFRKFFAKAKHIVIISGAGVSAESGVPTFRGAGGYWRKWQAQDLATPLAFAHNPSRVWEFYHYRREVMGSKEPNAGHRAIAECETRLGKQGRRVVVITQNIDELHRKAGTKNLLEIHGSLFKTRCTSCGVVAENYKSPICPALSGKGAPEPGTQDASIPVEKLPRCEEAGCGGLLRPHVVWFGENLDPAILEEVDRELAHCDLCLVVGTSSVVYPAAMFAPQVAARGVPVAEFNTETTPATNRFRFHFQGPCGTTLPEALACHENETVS

[7] = target: T6, dSir2 (Drosophila melanogaster, UniProt Q9VK34, DEL53-54/DUP289-290/L518H/P746H/V753F); test: Resveratrol dose-response, fluorogenic deacetylation, dSir2; assay type: biochemical, D. melanogaster; details: 25° C., 50 μM NAD+, 50 μM Fluor de Lys acetylated lysine substrate; FIG. 1
T6 construct: made in house; host or cells: E. coli

[8] = target: T7, ySir2 (Saccharomyces cerevisiae, UniProt P06700); test: Resveratrol dose-response, fluorogenic deacetylation, ySir2; assay type: biochemical, S. cerevisiae (budding yeast); details: 30° C., 200 μM NAD+, 200 μM p53-382; FIG. 1
T7 construct: made in house; host or cells: E. coli
T7 sequence (P06700 whole entry): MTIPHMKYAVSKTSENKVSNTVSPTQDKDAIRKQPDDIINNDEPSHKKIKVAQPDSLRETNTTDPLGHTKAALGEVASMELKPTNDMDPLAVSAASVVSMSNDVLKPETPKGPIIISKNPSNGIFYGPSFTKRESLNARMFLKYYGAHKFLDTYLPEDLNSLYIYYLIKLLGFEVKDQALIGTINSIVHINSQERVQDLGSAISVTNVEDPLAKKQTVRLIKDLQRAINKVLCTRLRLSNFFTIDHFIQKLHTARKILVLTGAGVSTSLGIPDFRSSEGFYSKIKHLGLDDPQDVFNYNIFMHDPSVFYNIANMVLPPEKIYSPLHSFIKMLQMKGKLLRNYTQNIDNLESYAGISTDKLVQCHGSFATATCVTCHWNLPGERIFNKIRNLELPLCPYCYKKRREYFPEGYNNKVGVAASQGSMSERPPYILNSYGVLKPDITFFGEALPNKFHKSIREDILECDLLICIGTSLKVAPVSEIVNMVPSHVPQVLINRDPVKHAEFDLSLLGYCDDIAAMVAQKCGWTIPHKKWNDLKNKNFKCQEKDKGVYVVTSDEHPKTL

T6 sequence (Q9VK34 other isoform, or with tags, fused parts or gaps DEL53-54/DUP289-290/L518H/P746H/V753F): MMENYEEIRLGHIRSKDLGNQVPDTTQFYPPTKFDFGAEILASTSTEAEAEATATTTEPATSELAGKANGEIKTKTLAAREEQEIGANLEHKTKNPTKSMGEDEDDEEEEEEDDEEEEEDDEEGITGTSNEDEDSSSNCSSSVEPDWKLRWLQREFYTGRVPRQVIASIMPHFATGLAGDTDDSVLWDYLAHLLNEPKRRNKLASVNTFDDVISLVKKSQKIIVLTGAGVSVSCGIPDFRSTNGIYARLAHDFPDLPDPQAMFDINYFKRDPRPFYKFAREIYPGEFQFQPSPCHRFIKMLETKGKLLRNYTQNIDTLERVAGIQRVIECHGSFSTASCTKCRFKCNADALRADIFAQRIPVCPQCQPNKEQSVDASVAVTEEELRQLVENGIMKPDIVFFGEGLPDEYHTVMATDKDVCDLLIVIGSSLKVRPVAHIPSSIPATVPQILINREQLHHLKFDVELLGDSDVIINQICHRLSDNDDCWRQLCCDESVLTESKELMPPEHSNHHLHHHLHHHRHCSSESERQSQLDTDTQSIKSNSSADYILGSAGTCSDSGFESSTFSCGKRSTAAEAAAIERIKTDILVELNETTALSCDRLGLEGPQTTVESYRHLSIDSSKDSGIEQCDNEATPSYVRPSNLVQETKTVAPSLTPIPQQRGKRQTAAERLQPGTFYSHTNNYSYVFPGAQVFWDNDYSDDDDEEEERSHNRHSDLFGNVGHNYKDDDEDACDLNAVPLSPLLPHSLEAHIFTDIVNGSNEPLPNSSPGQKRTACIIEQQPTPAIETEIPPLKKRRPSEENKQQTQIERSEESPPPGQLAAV

SMILES | SIRT1 Ratio to Control Rates Mean ± SE Compounds at 100 μM ([1]; 25 μM NAD+) | SIRT5 Ratio of Control Rates Mean ± SE Compounds at 200 μM [2] | other results
Oc1ccc(/C=C/c2cc(O)cc(O)c2)cc1 [Resveratrol, 3,5,4′-Trihydroxy-trans-stilbene] |  |  | resveratrol-dependent rate increase, human SIRT1 ([1]; 37° C., 25 μM NAD+, 25 μM p53-382, FIG. 1): rate increases are seen; resveratrol concentration at which maximum rate stimulation occurred, SIRT1 ([1]; FIG. 1A): > 100 µM; resveratrol-dependent rate increase, human SIRT3 [3]: not; lowering of the Km for the p53-382 peptide [4]: more than ten-fold; resveratrol activation of E230K mutant SIRT1 [5]: diminished resveratrol activation; stimulation of SIRT5Δ1-39 deacetylation activity [6]: similarly stimulated; resveratrol-dependent rate increase, dSir2 [7]: rate increases are seen; resveratrol-dependent rate increase, ySir2 [8]: rate increases are seen
O=c1c(O)c(-c2ccc(O)c(O)c2)oc2cc(O)cc(O)c12 [Quercetin, 3,5,7,3′,4′-Pentahydroxyflavone] | 4.59 ± 0.47 | 2.18 ± 0.10 | relative activation of SIRT5 versus SIRT1 (in words) [2]: relatively less potent SIRT5 activation
CC(=O)Oc1cc(O)cc(/C=C/c2ccc(O)cc2)c1 [BML-227, 3,4′-Dihydroxy-5-acetoxy-trans-stilbene] | 2.69 ± 0.08 | 2.09 ± 0.25 | 
Oc1cccc(/C=C/c2ccccc2)c1 [3-Hydroxy-trans-stilbene] | 2.36 ± 0.07 | 0.79 ± 0.06 | identified as human SIRT5 inhibitor [2]: SIRT5 inhibitors
O=C(/C=C/c1ccc(O)c(O)c1)c1ccc(O)cc1O [Butein, 3,4,2′,4′-Tetrahydroxychalcone] | 8.53 ± 0.89 | 2.19 ± 0.10 | relative activation of SIRT5 versus SIRT1 (in words) [2]: selective activators of SIRT1 as compared to SIRT5; also recorded: relatively less potent SIRT5 activation

More lines, main results first:

SIRT1 Ratio to Control Rates Mean ± SE Compounds at 100 μM ([1]; 25 μM NAD+) | SIRT5 Ratio of Control Rates Mean ± SE Compounds at 200 μM [2] | SMILES | other results
2.74 ± 0.37 | 4.50 ± 0.28 | COC(=O)c1ccc(/C=C/c2cc(O)cc(O)c2)cc1 [BML-237, 3,5-Dihydroxy-4′-carbomethoxy-trans-stilbene] | relative activation of SIRT5 versus SIRT1 (in words) [2]: selective activators of SIRT5 as compared to SIRT1
3.05 ± 0.37 | 2.47 ± 0.22 | Oc1cc(O)cc(/C=C/c2ccc3ccccc3c2)c1 [BML-218, (E)-1-(3,5-Dihydroxyphenyl)-2-(2-napthyl)ethene] | 
1.36 ± 0.10 | 2.09 ± 0.25 | O=C(O)c1ccc(/C=C/c2cc(O)cc(O)c2)cc1 [BML-238, 3,5-Dihydroxy-4′-carboxy-trans-stilbene] | 
1.30 ± 0.04 | 1.40 ± 0.23 | Oc1cc(O)cc(/C=C/C2CCCCC2)c1 [BML-224, (E)-1-(3,5-Dihydroxyphenyl)-2-(cyclohexyl)ethene] | 
9.373 ± 0.014 | 8.41 ± 0.36 | CCc1ccc(/C=C/c2cc(O)cc(O)c2)cc1 [BML-225, 3,5-Dihydroxy-4′-ethyl-trans-stilbene] | 
6.84 ± 1.26 | 4.60 ± 0.17 | CSc1ccc(/C=C/c2cc(O)cc(O)c2)cc1 [BML-230, 3,5-Dihydroxy-4′-thiomethyl-trans-stilbene] | 
7.72 ± 0.12 | 8.12 ± 0.31 | Cc1ccc(/C=C/c2cc(O)cc(O)c2)cc1 [BML-228, 3,5-Dihydroxy-4′-methyl-trans-stilbene] | 
6.78 ± 0.22 | 3.43 ± 0.10 | O=[N+]([O-])c1ccc(/C=C/c2cc(O)cc(O)c2)cc1 [BML-229, 3,5-Dihydroxy-4′-nitro-trans-stilbene] | 
